In patent publication US8247573B2, “Substituted N-(2-mercaptopyridin-3-yl)amides as KCNQ2/3 modulators” (Gruenenthal GmbH, priority 2009, dated 2012) one finds EC50, Emax and IC50 data, which are given here for 21 molecules.

The term EC50 denotes the concentration giving half of the maximal effect. A lower EC50 goes with an effect from little substance. What is called IC50 is the concentration needed to halve the response being measured.

The experiment addresses T1, KCNQ2/3 channels (Homo sapiens, UniProt O43525+O43526).
T1 construct: expressed in transfected cells; host or cells: CHO-K1
In words: Fluorescence assay using a voltage-sensitive dye (fluorimetry). Type of experiment: cell-based. To be noted: CHO-K1 cells expressing KCNQ2/3; for EC50: agonistic activity; for Emax: relative to retigabine = 100%, negative values = antagonistic, read-out: Fluorimetry % efficacy (I/EC50, retigabine = 100%). The procedure:
Pharmacological Experiments Fluorescence Assay Using a Voltage-Sensitive Dye
Human CHO-K1 cells expressing KCNQ2/3 channels are cultivated adherently at 37° C., 5% CO2 and 95% humidity in cell culture bottles (e.g. 80 cm^2 TC flasks, Nunc) with DMEM-high glucose (Sigma Aldrich, D7777) including 10% FCS (PAN Biotech, e.g. 3302-P270521) or alternatively MEM Alpha Medium (1×, liquid, Invitrogen, #22571), 10% foetal calf serum (FCS) (Invitrogen, #10270-106, heat-inactivated) and the necessary selection antibiotics.
Before being seeded out for the measurements, the cells are washed with a 1×DPBS buffer without Ca^2+/Mg^2+ (e.g. Invitrogen, #14190-094) and detached from the bottom of the culture vessel by means of Accutase (PAA Laboratories, #L11-007) (incubation with Accutase for 15 min at 37° C.). The cell count then present is determined using a CASY™ cell counter (TCC model, Schärfe System) in order subsequently to apply 20,000 to 30,000 cells/well/100 μl of the described nutrient medium, depending on density optimisation for the individual cell line, to 96-well measuring plates of the Corning™ CellBIND™ type (flat clear-bottom black polystyrene microplates, #3340). Incubation is then carried out for one hour at room temperature, without gassing or adjusting the humidity, followed by incubation for 24 hours at 37° C., 5% CO2 and 95% humidity.
The voltage-sensitive fluorescent dye from the Membrane Potential Assay Kit (Red™ bulk format part R8123 for FLIPR, MDS Analytical Technologies™) is prepared by dissolving the contents of a vessel of Membrane Potential Assay Kit Red Component A in 200 ml of extracellular buffer (ES buffer, 120 mM NaCl, 1 mM KCl, 10 mM HEPES, 2 mM CaCl2, 2 mM MgCl2, 10 mM glucose; pH 7.4). After removal of the nutrient medium, the cells are washed with 200 μl of ES buffer, then covered with a layer of 100 μl of the dye solution prepared above and incubated for 45 min at room temperature with exclusion of light.
The fluorescence measurements are carried out with a BMG Labtech FLUOstar™, BMG Labtech NOVOstar™ or BMG Labtech POLARstar™ instrument (525 nm excitation, 560 nm emission, bottom-read mode). After incubation of the dye, 50 μl of the substances to be tested in the desired concentrations, or 50 μl of ES buffer for control purposes, are introduced into separate cavities of the measuring plate and incubated for 30 min at room temperature whilst being shielded from light. The fluorescence intensity of the dye is then measured for 5 min and the fluorescence value F1 of each well is thus determined at a given, constant time. 15 μl of a […] KCl solution […] are then added to each well. The change in fluorescence is subsequently measured until all relevant measured values have been obtained (mainly […]). At a given time after KCl application, a fluorescence value F2 is determined, in this case at the time of the fluorescence peak.
For calculation, the fluorescence intensity F2 is compared with the fluorescence intensity F1, and the agonistic activity of the target compound on the potassium channel is determined therefrom. F2 and F1 are calculated as follows: […]
In order to determine whether a substance has an agonistic activity,
[formula] is determined by adding to the reaction batch only the buffer solution instead of the substance to be tested, determining the value F1K of the fluorescence intensity, adding the potassium ions as described above and measuring a value F2K of the fluorescence intensity. Then F2K and F1K are calculated as follows: […]
A substance has an agonistic activity on the potassium channel if
Independently of the comparison of
[formula] it is also possible to conclude that a target compound has an agonistic activity if an increase in
[formula] is to be observed as the dosage of the target compound increases.
Calculations of EC50 values are carried out with the aid of Prism v4.0 software (GraphPad Softwares™).

The structures appear in SMILES notation.

Regarding `O=C1CCCC(CC(=O)Nc2cccnc2SCCS(=O)(=O)c2cccc(C(F)(F)F)c2)C1` (stereo not shown) [Example 55, 2-(3-Oxocyclohexyl)-N-[2-[2-[[3-(trifluoromethyl)phenyl]sulfonyl]-ethylsulfanyl]-pyridin-3-yl]acetamide], the half-maximal effective concentration (EC50) is 3600 nM and the Emax worked out at 84.8%. On to `O=C(CC1CCCCC1)Nc1cccnc1SCCS(=O)(=O)c1cccc(C(F)(F)F)c1` [Example 2, 2-Cyclohexyl-N-[2-[2-[[3-(trifluoromethyl)phenyl]sulfonyl]-ethylsulfanyl]-pyridin-3-yl]acetamide], for which the EC50 is 27 nM and the Emax came to 142%. On the same counts, the results for `O=C(Cc1cccs1)Nc1cccnc1SCCOc1cccc(C(F)(F)F)c1` [Example 22, 2-Thiophen-2-yl-N-[2-[2-[3-(trifluoromethyl)-phenoxy]-ethylsulfanyl]-pyridin-3-yl]acetamide] are 732 nM and 155%. For `O=C(CCc1ccccc1)Nc1cccnc1SCCS(=O)(=O)c1cccc(C(F)(F)F)c1` [Example 27, 3-Phenyl-N-[2-[2-[[3-(trifluoromethyl)phenyl]sulfonyl]-ethylsulfanyl]-pyridin-3-yl]propionamide] the same measures were 208 nM and 112%. For `O=C(Cc1cccs1)Nc1cccnc1SCCCc1cccc(C(F)(F)F)c1` [Example 23, 2-Thiophen-2-yl-N-[2-[3-[3-(trifluoromethyl)phenyl]-propylsulfanyl]-pyridin-3-yl]acetamide] the same measures were 157 nM and 165%. For `O=C(CC1CCCC1)Nc1cccnc1SCCS(=O)(=O)c1cccc(C(F)(F)F)c1` [Example 14, 2-Cyclopentyl-N-[2-[2-[[3-(trifluoromethyl)phenyl]sulfonyl]-ethylsulfanyl]-pyridin-3-yl]acetamide], the EC50 was determined as 45 nM and the Emax was determined as 167%.

Turning to `O=C(CCC1CCc2ccccc2C1)Nc1cccnc1SCCS(=O)(=O)c1cccc(C(F)(F)F)c1` (stereo not shown) [Example 57, 3-(1,2,3,4-Tetrahydronaphthalen-2-yl)-N-[2-[2-[[3-(trifluoromethyl)phenyl]sulfonyl]-ethylsulfanyl]-pyridin-3-yl]propionamide], the midpoint of the response, the EC50, lay at 56.5 nM and the Emax amounted to 134%. On the same counts, the results for `O=C(Nc1cccnc1SCCS(=O)(=O)c1cccc(C(F)(F)F)c1)c1cccc(O)c1` [Example 47, 3-Hydroxy-N-[2-[2-[[3-(trifluoromethyl)phenyl]sulfonyl]-ethylsulfanyl]-pyridin-3-yl]benzamide] are 265 nM and 95%.

In the case of `O=C(Cc1cccc(O)c1)Nc1cccnc1SCCS(=O)(=O)c1cccc(C(F)(F)F)c1` [Example 37, 2-(3-Hydroxyphenyl)-N-[2-[2-[[3-(trifluoromethyl)phenyl]sulfonyl]-ethylsulfanyl]-pyridin-3-yl]acetamide], the Emax is 31%.

On to `O=C(CC1CCCCC1)Nc1cccnc1SCCSc1cccc(C(F)(F)F)c1` [Example 29, 2-Cyclohexyl-N-[2-[2-[[3-(trifluoromethyl)phenyl]sulfanyl]-ethylsulfanyl]-pyridin-3-yl]acetamide], for which it took 312 nM to reach a half-maximal effect (EC50) and the Emax turned out to be 108%.

`CC(C)(C)CC(=O)Nc1cccnc1SCCCc1ccc(F)cc1` [Example 66, N-[2-[3-(4-Fluorophenyl)-propylsulfanyl]-pyridin-3-yl]-3,3-dimethyl butyramide]: the 50% effective concentration (EC50) came to 184 nM and the Emax is 176%. For `COc1cccc(CC(=O)Nc2cccnc2SCCS(=O)(=O)c2cccc(C(F)(F)F)c2)c1` [Example 11, 2-(3-Methoxyphenyl)-N-[2-[2-[[3-(trifluoromethyl)phenyl]sulfonyl]-ethylsulfanyl]-pyridin-3-yl]acetamide] the same measures were 588 nM and 109%. Turning to `Cc1cc(C)cc(C(C)C(=O)Nc2cccnc2SCCS(=O)(=O)c2ccccc2)c1` (stereo not shown) [Example 8, N-[2-[2-(Benzenesulfonyl)-ethylsulfanyl]-pyridin-3-yl]-2-(3,5-dimethylphenyl)propionamide], the Emax is -68%. In addition, half-maximal inhibition (antagonistic activity) (IC50) was put at 322 nM. Consider `O=C(Cc1cccs1)Nc1cccnc1SCCSc1ccccc1` [Example 21, N-[2-(2-Phenylsulfanyl-ethylsulfanyl)-pyridin-3-yl]-2-thiophen-2-yl acetamide], for which a half-maximal response (EC50) required 83 nM and the Emax turned out to be 152%.

Regarding `O=C(CC1CCOCC1)Nc1cccnc1SCCS(=O)(=O)c1cccc(C(F)(F)F)c1` [Example 40, 2-Tetrahydropyran-4-yl-N-[2-[2-[[3-(trifluoromethyl)phenyl]sulfonyl]-ethylsulfanyl]-pyridin-3-yl]acetamide], the Emax came to 52%. As to `O=C(CCC1CCCCC1)Nc1cccnc1SCCS(=O)(=O)c1ccccc1` [Example 6, N-[2-[2-(Benzenesulfonyl)-ethylsulfanyl]-pyridin-3-yl]-3-cyclohexyl propionamide], the 50% effective concentration (EC50) was determined as 76 nM and the Emax came to 225%.

Turning to `O=C(CCC1CCCCC1)Nc1cccnc1SCCS(=O)(=O)c1cccc(C(F)(F)F)c1` [Example 41, 3-Cyclohexyl-N-[2-[2-[[3-(trifluoromethyl)phenyl]sulfonyl]-ethylsulfanyl]-pyridin-3-yl]propionamide], a half-maximal response (EC50) required 99 nM and the Emax stood at 127%. For the molecule `O=C(Nc1cccnc1SCCS(=O)(=O)c1ccccc1)c1ccc(F)c(F)c1` [Example 5, N-[2-[2-(Benzenesulfonyl)-ethylsulfanyl]-pyridin-3-yl]-3,4-difluorobenzamide], a half-maximal response (EC50) required 469 nM and the Emax was 129%. Regarding `O=C(CC1CCc2ccccc2C1)Nc1cccnc1SCCS(=O)(=O)c1cccc(C(F)(F)F)c1` (stereo not shown) [Example 52, 2-(1,2,3,4-Tetrahydronaphthalen-2-yl)-N-[2-[2-[[3-(trifluoromethyl)phenyl]sulfonyl]-ethylsulfanyl]-pyridin-3-yl]acetamide], the EC50 turned out to be 208 nM and the Emax was 59%. On the same counts, the results for `O=C(Cc1cccs1)Nc1cccnc1SCCCc1ccccc1` [Example 33, N-[2-(3-Phenyl-propylsulfanyl)-pyridin-3-yl]-2-thiophen-2-yl acetamide] are 141 nM and 106%. In the case of `O=C(Cc1ccc2ccccc2c1)Nc1cccnc1SCCS(=O)(=O)c1cccc(C(F)(F)F)c1` [Example 24, 2-Naphthalen-2-yl-N-[2-[2-[[3-(trifluoromethyl)phenyl]sulfonyl]-ethylsulfanyl]-pyridin-3-yl]acetamide], the EC50 was determined as 153 nM and the Emax is 84%.
